Laboratory results: PMC6458995, “MAP4K4 Inhibition Promotes Survival of Human Stem Cell-Derived Cardiomyocytes and Reduces Infarct Size In Vivo” (Cell Stem Cell, 2019)
Like-named read-outs stand apart in the source and are kept apart here.

Assays:
PHK = assay: Dundee kinase panel; type: biochemical, human; conditions: 1 μM
Experimental: (§1) Compounds were screened at 1 μM. For key hits, pIC50 values were then determined by HTRF as above. […] Stability in mouse and human liver microsomes was determined by Cyprotex.

AMPK = assay: Dundee kinase panel; type: biochemical, human; conditions: 1 μM
Experimental: as §1

PINK = assay: Dundee kinase panel; type: biochemical, human; conditions: 1 μM
Experimental: Kinase selectivity profiling was performed by the International Centre for Kinase Profiling, MRC Protein Phosphorylation and Ubiquitylation Unit (141 kinases; Premier Screen, http://www.kinase-screen.mrc.ac.uk), using a [γ-^33P]ATP filter binding assay ([Bain et al., 2007]). Compounds were screened at 1 μM. For key hits, pIC50 values were then determined by HTRF as above. More complete kinome profiling was performed by Reaction Biology (376 kinases). Stability in mouse and human liver microsomes was determined by Cyprotex.

recombinant human MAP4K4 = molecular target: T1, recombinant human MAP4K4 (Homo sapiens, UniProt O95819); assay: In vitro MAP4K4 kinase activity assay (HTRF Transcreener ADP); type: biochemical
T1 construct: Human MAP4K4 kinase domain (aa 1-328); purchased Invitrogen PV3687
Experimental: MAP4K4 kinase activity was monitored using the CisBio HTRF Transcreener ADP assay, a competitive immunoassay with a reproducible Z’ > 0.6. In the detection step, endogenous ADP and d2-labeled ADP compete for binding an anti-ADP monoclonal antibody labeled with Eu^3+ cryptate. […] Assays were run in Greiner low volume plates with a final reaction volume of 10 μl. Percent inhibition was calculated from 100% activity of MAP4K4 (DMSO only) and 0% activity (no enzyme added). Data were either reported as % inhibition at a single dose or as pIC50 values derived from dose response curves (pIC50 = -log[IC50]).

S6K1 = molecular target: T2, S6K1 (Homo sapiens, UniProt P23443); assay: Dundee kinase panel; type: biochemical; conditions: for remaining activity at 1 µM: read-out: residual activity
T2 construct: lines 1-140) and Reaction Biology
Experimental: as §1

TLK1 = molecular target: T3, TLK1 (Homo sapiens, UniProt Q9UKI8); assay: Dundee kinase panel; type: biochemical; conditions: for remaining activity at 1 µM: read-out: residual activity
T3 construct: lines 1-140) and Reaction Biology
T3 sequence (Q9UKI8 1-766): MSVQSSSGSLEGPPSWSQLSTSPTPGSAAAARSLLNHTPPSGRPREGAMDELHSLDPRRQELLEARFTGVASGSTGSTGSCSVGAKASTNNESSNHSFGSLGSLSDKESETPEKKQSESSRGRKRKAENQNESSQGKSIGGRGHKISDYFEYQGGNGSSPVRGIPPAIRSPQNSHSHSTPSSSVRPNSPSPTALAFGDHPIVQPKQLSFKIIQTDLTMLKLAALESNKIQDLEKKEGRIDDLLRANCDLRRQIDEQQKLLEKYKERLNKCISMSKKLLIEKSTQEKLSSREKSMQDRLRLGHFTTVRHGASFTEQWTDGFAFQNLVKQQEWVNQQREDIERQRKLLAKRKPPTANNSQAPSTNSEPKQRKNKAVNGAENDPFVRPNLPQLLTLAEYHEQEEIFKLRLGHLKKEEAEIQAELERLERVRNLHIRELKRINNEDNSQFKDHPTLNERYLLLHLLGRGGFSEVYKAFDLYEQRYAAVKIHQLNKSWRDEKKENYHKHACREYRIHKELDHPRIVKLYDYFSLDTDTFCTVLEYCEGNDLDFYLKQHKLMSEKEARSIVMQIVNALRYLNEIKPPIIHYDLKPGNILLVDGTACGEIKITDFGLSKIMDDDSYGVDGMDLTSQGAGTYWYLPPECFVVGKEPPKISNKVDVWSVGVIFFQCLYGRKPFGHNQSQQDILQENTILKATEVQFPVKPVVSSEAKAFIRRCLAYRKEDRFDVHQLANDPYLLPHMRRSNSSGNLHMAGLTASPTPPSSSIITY
Experimental: as §1

MAP4K3 = molecular target: T4, MAP4K3 (Homo sapiens, UniProt Q8IVH8); assay: Dundee kinase panel; type: biochemical; conditions: for remaining activity at 1 µM: read-out: residual activity
T4 construct: lines 1-140) and Reaction Biology
T4 sequence (Q8IVH8 1-894): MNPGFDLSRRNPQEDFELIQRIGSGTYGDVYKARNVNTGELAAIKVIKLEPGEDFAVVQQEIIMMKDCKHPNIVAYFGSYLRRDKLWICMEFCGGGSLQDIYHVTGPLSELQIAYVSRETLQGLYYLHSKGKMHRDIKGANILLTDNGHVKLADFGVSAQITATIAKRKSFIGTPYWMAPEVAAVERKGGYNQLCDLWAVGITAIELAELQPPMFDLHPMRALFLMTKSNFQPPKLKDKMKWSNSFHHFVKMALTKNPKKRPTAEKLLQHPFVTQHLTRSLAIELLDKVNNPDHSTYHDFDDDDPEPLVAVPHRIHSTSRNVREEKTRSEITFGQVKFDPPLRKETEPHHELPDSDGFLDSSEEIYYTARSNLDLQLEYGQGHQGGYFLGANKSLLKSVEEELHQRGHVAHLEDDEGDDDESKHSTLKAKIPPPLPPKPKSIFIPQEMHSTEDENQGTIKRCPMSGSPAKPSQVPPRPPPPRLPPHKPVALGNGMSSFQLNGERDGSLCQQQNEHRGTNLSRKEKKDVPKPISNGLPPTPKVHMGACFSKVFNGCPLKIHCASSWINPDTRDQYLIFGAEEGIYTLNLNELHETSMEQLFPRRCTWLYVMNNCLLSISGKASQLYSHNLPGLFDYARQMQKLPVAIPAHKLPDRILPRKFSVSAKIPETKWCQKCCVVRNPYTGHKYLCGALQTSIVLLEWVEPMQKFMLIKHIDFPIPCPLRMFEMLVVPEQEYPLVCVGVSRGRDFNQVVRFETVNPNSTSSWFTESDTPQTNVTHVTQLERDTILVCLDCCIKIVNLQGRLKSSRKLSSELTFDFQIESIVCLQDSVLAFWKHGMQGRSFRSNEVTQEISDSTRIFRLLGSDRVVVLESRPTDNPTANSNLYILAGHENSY
Experimental: as §1

CK1δ = molecular target: T5, CK1δ (Homo sapiens, UniProt P48730); assay: Dundee kinase panel; type: biochemical; conditions: for remaining activity at 1 µM: read-out: residual activity
T5 construct: lines 1-140) and Reaction Biology
Experimental: as §1

NEK6 = molecular target: T6, NEK6 (Homo sapiens, UniProt Q9HC98); assay: Dundee kinase panel; type: biochemical; conditions: for remaining activity at 1 µM: read-out: residual activity
T6 construct: lines 1-140) and Reaction Biology
Experimental: as §1

[1] = MAP4K4, HTRF Transcreener ADP assay, read-out: pIC50 (converted)
[2] = dose-response, Figure 2C, read-out: IC50 against recombinant human MAP4K4

T1 sequence (O95819 1-328): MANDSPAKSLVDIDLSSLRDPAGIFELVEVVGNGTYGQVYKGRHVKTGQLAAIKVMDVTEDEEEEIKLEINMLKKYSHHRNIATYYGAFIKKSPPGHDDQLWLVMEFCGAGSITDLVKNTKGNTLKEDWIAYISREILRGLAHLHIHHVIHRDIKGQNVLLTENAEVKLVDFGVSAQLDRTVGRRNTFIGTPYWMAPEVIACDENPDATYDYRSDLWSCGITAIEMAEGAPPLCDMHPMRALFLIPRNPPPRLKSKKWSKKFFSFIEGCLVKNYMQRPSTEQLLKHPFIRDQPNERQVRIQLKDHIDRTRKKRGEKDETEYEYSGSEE
T2 sequence (P23443 whole entry): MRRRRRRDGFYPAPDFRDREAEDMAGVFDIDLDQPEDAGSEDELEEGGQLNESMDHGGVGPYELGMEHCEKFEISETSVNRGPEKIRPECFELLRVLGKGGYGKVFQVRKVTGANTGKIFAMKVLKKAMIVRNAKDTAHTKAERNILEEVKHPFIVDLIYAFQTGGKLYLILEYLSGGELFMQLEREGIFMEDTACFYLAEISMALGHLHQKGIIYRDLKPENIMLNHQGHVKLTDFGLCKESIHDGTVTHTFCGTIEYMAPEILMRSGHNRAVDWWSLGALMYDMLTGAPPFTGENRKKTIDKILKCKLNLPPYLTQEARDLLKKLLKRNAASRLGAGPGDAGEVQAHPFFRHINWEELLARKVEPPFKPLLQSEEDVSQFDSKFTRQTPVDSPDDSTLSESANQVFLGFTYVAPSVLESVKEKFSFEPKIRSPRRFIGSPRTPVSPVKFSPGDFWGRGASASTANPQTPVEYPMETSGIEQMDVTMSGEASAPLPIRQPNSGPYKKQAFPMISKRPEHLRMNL
T5 sequence (P48730 whole entry): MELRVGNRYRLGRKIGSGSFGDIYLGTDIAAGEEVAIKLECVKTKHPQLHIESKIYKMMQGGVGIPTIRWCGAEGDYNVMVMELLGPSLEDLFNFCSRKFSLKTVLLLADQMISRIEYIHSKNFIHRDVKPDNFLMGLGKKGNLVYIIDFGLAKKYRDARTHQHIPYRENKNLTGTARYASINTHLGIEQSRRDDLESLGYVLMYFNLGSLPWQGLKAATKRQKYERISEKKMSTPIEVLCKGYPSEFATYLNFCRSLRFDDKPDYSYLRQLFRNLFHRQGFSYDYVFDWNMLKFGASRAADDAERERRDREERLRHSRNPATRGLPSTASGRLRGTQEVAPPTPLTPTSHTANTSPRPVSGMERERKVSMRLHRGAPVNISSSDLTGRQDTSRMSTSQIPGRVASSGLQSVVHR
T6 sequence (Q9HC98 whole entry): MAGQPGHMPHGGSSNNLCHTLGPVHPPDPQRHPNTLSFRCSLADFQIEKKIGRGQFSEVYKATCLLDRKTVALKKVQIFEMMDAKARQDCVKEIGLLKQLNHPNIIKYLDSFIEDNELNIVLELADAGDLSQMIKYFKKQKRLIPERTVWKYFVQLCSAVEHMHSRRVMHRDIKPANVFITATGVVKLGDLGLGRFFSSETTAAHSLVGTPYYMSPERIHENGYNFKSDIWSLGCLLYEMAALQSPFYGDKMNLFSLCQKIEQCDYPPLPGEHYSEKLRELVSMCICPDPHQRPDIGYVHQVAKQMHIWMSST

Structure (SMILES)	residual activity (PHK) [%]	residual activity (AMPK) [%]	residual activity (PINK) [%]	fold greater potency compared with F1386-0303 (recombinant human MAP4K4) [fold]	IC50 (recombinant human MAP4K4; [1]) [nM]	remaining activity at 1 µM (S6K1) [%]	remaining activity at 1 µM (TLK1) [%]	remaining activity at 1 µM (MAP4K3) [%]	remaining activity at 1 µM (CK1δ) [%]	remaining activity at 1 µM (NEK6) [%]	IC50 (recombinant human MAP4K4; [2]) [nM]	residual activity (S6K1; 1 μM) [%]	residual activity (TLK1; 1 μM) [%]	residual activity (MAP4K3; 1 μM) [%]	residual activity (CK1δ; 1 μM) [%]	residual activity (NEK6; 1 μM) [%]
COCCOc1ccc(-c2cn(-c3ccccc3)c3nc[nH]c(=O)c23)cc1 [DMX-5804, 5-[4-(2-methoxy-ethoxy)-phenyl]-7-phenyl-3,7-dihydro-pyrrolo[2,3-d]pyrimidin-4-one]	102	87	108	10	2.82	121	111	41	94	101						
Oc1ncnc2c1c(-c1ccccc1)cn2-c1ccccc1 [F1386-0303, 5,7-diphenyl-7H-pyrrolo[2,3-d]pyrimidin-4-ol]	106	114	104		34.7	105	103	84	107	128	34					
Nc1ncc(C(=O)NC2CN(C(=O)C3CC3)C2)c2ccc(-c3cccc(F)c3)nc12 [GNE-495]	96	81	104									43	77	7	65	111
O=C1Nc2ccc(I)cc2/C1=C/c1cc(Br)c(O)c(Br)c1 [GW5074]	26	42				87	86	31	88	82	30					
O=C1Cc2c([nH]c3ccc(Br)cc23)-c2ccccc2N1 [Kenpaullone]	20	64				97	95	14	104	99	30					
